Data reported in patent publication US20200281904A1, “PROPHYLACTIC AND/OR THERAPEUTIC AGENT FOR DISEASES INVOLVING IDO EXPRESSION” (TAIHO PHARMACEUTICAL CO., LTD., priority 2017, published 2020).

Key:
[1] = tested on: IDO protein; assay: Inhibitory effect on IDO protein expression, Western blotting; type: cell-based; details: human stomach cancer line NCI-N87; IFNγ 100 U/mL; 0.001, 0.01, 0.1 and 1 μM; 24 hours; FIG. 1
Protocol: Protein expression was detected by a Western blotting method. A human stomach cancer line NCI-N87 (CRL-5822) was purchased from American Type Culture Collection (ATCC). The cells were cultured in RPMI1640 (Wako Pure Chemical Industries, Ltd.) medium supplemented with 10% fetal bovine serum (FBS). The cells were seeded in a 6-well plate (#140675, Nunc) at 1×10^6 cells per well. The cells were cultured in a 5% CO2 incubator at 37° C. for 24 hours, INFγ (PeproTech, Inc.) at 100 U/mL and test substances [tanespimycin (Biotrend), ganetespib, BIIBO21 and Compound 1] in amounts of 0.001 μM, 0.01 μM, 0.1 μM and 1 μM each were then added, and the cells were further cultured for 24 hours. After the culturing, the cells were washed with ice-cooled PBS, and the cells were then lysed with a cytolytic agent. The cell lysate solution was centrifuged, and the soluble fraction was then removed, and subjected to thermal denaturation, followed by protein separation by SDS-PAGE.
10-fold dilution of TBST (Santa Cruz) with Milli-Q water was used as a washing solution, and the TBST solution containing 5% Blocking One (nacalai tesque) was used as an antibody diluting solution.
After completion of SDS-PAGE, the protein was transferred to a PVDF membrane (Trans-Blot Turbo Midi PVDF Transfer Pack, Biorad) by using a blotting device (Trans-Blot Turbo Transfer System, Biorad). The membrane after the transfer was blocked by incubation at room temperature for 60 minutes or more with Blocking One. […] The PVDF membrane was washed three times with the washing solution, and then immersed in SuperSignal West Pico Chemiluminescent Substrate (Thermo Scientific) for detection of GAPDH, or SuperSignal West Dura Extended Duration Substrate (Thermo Scientific) for detection of IDO, and chemiluminescence was detected by using Image Analyzer Amersham Imager 600QC (GE Healthcare Japan Corporation).

[2] = tested on: cells expressing IDO due to addition of IFNγ (IDO-positive cells); assay: Suppressive effect on growth in IDO-positive cells (all four lines, result in words); type: cell-based, human; details: GIST-T1, HCC827, NCI-H1975, NCI-N87 with IFNγ 100 U/mL; 0.001-10 μM; 72 hours; FIG. 3
Protocol: (§1) Human stomach cancer line NCI-N87 (CRL-5822), human lung cancer line NCI-H1975 (CRL-5908) and human lung cancer line HCC827 (CRL-2868) were purchased from ATCC, and human gastrointestinal stromal tumor line GIST-T1 (GIST01) was purchased from Cosmo Bio Co., Ltd. NCI-N87, NCI-H1975 and HCC827 were cultured in RPM11640 (Wako Pure Chemical Industries, Ltd.) medium supplemented with 10% FBS, and GIST-T1 was cultured in DMEM (Wako Pure Chemical Industries, Ltd.) medium supplemented with 10% FBS. The IDO protein and GAPDH were detected in the same manner as in Example 1 described above.
The amount of ATP generated from surviving cells was determined by CellTiter-Glo2.0 Assay (# G9243, Promega Corporation) to evaluate the cell growth inhibition ability of test substance. […] The intensity of luminescence was measured using a microplate reader (EnSpire™ Multimode Plate Reader, PerkinElmer Japan Co., Ltd.), and used as an index of the number of surviving cells in each well. Using the intensity of luminescence of a group not treated with a test substance (control group) as a control, the cell survival rate (%) was calculated by using the following equation. […]

[3] = tested on: NCI-H1975; assay: Cell growth inhibition, CellTiter-Glo2.0 Assay, IFNγ added; type: cell-based; details: Homo sapiens, IFNγ 100 U/mL, 72 hours, number of surviving cells reduced to 50% of control
Protocol: as §1
(§2) The amount of ATP generated from surviving cells was determined by CellTiter-Glo2.0 Assay (# G9243, Promega Corporation) to evaluate the cell growth inhibition ability of test substance. The cells of GIST-T1, HCC827, NCI-H1975 and NCI-N87 were seeded in 96-well plates (#165305, Thermo Scientific) at 1×10^4 (NCI-N87), 2×10^3 (HCC827 and HCI-H1975) and 3×10^3 (GIST-T1) per well, and cultured in a 5% CO2 incubator at 37° C. for 24 hours. After the culturing for 24 hours, INFγ (PeproTech) at 100 U/mL and a test substance (Compound 1) in amounts of 0.001 μM, 0.003 μM, 0.01 μM, 0.03 μM, 0.1 μM, 0.3 μM, 1 μM, 3 μM and 10 μM each were added, and further cultured for 72 hours. Equivalent amount of CellTiter-Glo2.0 Assay reagent as the medium was added to each well, the mixture was stirred for 2 minutes using a shaker under shading condition, and the plate was then left to stand at room temperature for about 10 minutes. The intensity of luminescence was measured using a microplate reader (EnSpire™ Multimode Plate Reader, PerkinElmer Japan Co., Ltd.), and used as an index of the number of surviving cells in each well. Using the intensity of luminescence of a group not treated with a test substance (control group) as a control, the cell survival rate (%) was calculated by using the following equation. From the obtained survival rate, the concentration (IC50 (μM)), at which the number of surviving cells is reduced to 50% of the control, was determined by a curve fitting regression analysis tool using Regression Analysis Tool XLfit5.3.0.8 (IDBS Ltd.).
(§3) Cell survival rate=T/C×100
(§4) T: Amount of luminescence in wells with a test substance
(§5) C: Amount of luminescence in wells with no test substance

[4] = tested on: HCC827; assay: as above; type: cell-based; details: Homo sapiens, IFNγ 100 U/mL, 72 hours, number of surviving cells reduced to 50% of control
Protocol: as §1, §2, §3, §4, §5

[5] = tested on: NCI-N87; assay: as above; type: cell-based; details: Homo sapiens, IFNγ 100 U/mL, 72 hours, number of surviving cells reduced to 50% of control
Protocol: as §1, §2, §3, §4, §5

[6] = tested on: GIST-T1; assay: as above; type: cell-based; details: Homo sapiens, GISTT1, IFNγ 100 U/mL, 72 hours, number of surviving cells reduced to 50% of control
Protocol: as §1, §2, §3, §4, §5

Compound | inhibitory effect on IDO expression [1] | suppressive effect on cell growth [2] | IC50 [3] [nM] | IC50 [4] [nM] | IC50 [5] [nM] | IC50 [6] [nM]
COc1c(C)cnc(Cn2cnc3c(Cl)nc(N)nc32)c1C [BIIBO21] | inhibitory effect on IDO expression in a concentration-dependent manner |  |  |  |  | 
CCc1cc(C(N)=O)ccc1-n1nc(C(C)C)c2c(-n3cnc(-c4cnn(C)c4)c3)ccnc21 [Compound 1, 3-ethyl-4-{3-isopropyl-4-(4-(1-methyl-1H-pyrazol-4-yl)-1H-imidazol-1-yl)-1H-pyrazolo[3,4-b]pyridin-1-yl}benzamide] | inhibitory effect on IDO expression in a concentration-dependent manner | suppressive effect on cell growth in a concentration-dependent manner | 810 | 1420 | 380 | 270
CC(C)c1cc(-c2n[nH]c(=O)n2-c2ccc3c(ccn3C)c2)c(O)cc1O [ganetespib] | inhibitory effect on IDO expression in a concentration-dependent manner |  |  |  |  | 
